# From publication PMC9463526 (Journal of Pharmaceutical Analysis, 2022)
# Read-outs that look alike come from different tables or passages of the source.
# Key:
# [1] = Equilibrium dialysis, fraction unbound in brain homogenate; format: in vitro ADME, human; settings: pH 7.4; human brain homogenate spiked at 20 and 200 nM; 16 h equilibrium dialysis; read-out: Fraction unbound (fu), Brain
# Protocol: (§1) Equilibrium dialysis was employed to measure the fraction unbound of analytes in plasma, brain, and brain tumor tissue homogenates using 96-well DispoEquilibrium Dialyzer plates with a 10 kDa cut-off regenerated cellulose membrane. Dialysis was performed using 180 μL of human plasma or tissue homogenate against an equal volume of PBS (pH 7.4) in a dual-plate rotator (Harvard Apparatus, Holliston, MA, USA). Equilibrium time was initially optimized by analyzing samples after 2, 4, 6, 8, 16, and 24 h of dialysis at concentrations of 20 and 200 nM in human plasma and brain homogenate. The dialysates were collected and processed as described in Sections 2.3.2 and 2.3.3. The recovery of analytes was calculated as the ratio of analyte concentration after dialysis (sum of concentrations found in PBS and matrix fractions) to the total concentration to ensure the reliability and reproducibility of the assay. The experiments were repeated at least three times, and each sample in triplicate and average fraction unbound values were determined.
# (§2) The fraction unbound in plasma (fu, plasma) and tissue homogenate (fu, hom) was evaluated as the analyte concentration ratio of post-dialysis PBS (cu) to post-dialysis plasma (cp, Eq. (1)) or homogenate (chom, Eq. (2)).(1) fu,plasma =cu/cp (2) fu,hom =cu/chom
# (§3) The fraction unbound in the actual tissue (fu, tissue) was obtained by incorporating the unbound fraction in the tissue homogenate (fu, hom) and the dilution factor (Df) into Eq. (3).(3) fu,tissue = fu,hom/[Df - (Df - 1)fu,hom]
# [2] = Equilibrium dialysis, fraction unbound in patient brain tumor tissue; format: in vitro ADME; settings: human, five patients, 16 h equilibrium dialysis
# Protocol: as §1, §2, §3
# Unbound drug levels in the actual plasma and brain tumor tissue were measured using dialysis for 16 h to reach equilibrium. The mean of fraction unbound values determined in five patient samples was calculated.
# (§4) The validated bioanalytical method was employed to investigate analytes pharmacokinetics in the plasma, brain tumor, and CSF in GBM patients (ClinicalTrials.gov identifier: NCT04391595). The protocol was reviewed and approved by the Institutional Review Board of the Barrow Neurological Institute, St. Joseph's Hospital and Medical Center (Phoenix, AZ, USA). All patients enrolled in the trial provided written informed consent. […] Blood, CSF, and GBM tissue (including gadolinium-contrast enhancing and non-enhancing regions) samples were obtained intra-operatively from each patient on the […] on the planned operation day. Blood was centrifuged at 4 °C and 3,000 r/min for 10 min; plasma was subsequently collected. Brain tumors were resected 7–9 h after the last dose was administered. Once resected, the tissue samples were rinsed with PBS, paper dried, and freshly frozen in liquid nitrogen. The samples were then stored at −80 °C in a freezer for later analysis.
# [3] = Levels in intraoperatively collected CSF of GBM patients; format: in vivo; settings: human, po, five GBM patients, oral LY3214996 200 mg once daily and abemaciclib 150 mg twice daily for 5 days, intraoperative CSF
# Protocol: Blank brain and clinical brain tumor tissue homogenates were prepared at 1:9 (m/V) ratio with PBS. The samples were homogenized at a speed of 6.00 m/s for 40 s for three cycles using a Bead Ruptor Elite homogenizer (Omni International, Kennesaw, GA, USA). Plasma was used as a surrogate matrix when preparing calibration curves for brain and brain tumor homogenates and CSF as well as for the PBS fraction after sample dialysis. To minimize matrix differences, all plasma samples were spiked with PBS, while all non-plasma samples were spiked with plasma. Extraction of the analyte and IS was facilitated by protein precipitation using methanol-containing IS precipitation solution. Samples (70 μL) spiked with PBS or plasma were precipitated using 400 μL of IS precipitation solution. After centrifugation at 12,000 r/min for 10 min at 4 °C, the supernatant was transferred for LC-MS/MS analysis.
# as §4
# [4] = Analyte stability in human plasma; format: physicochemical; settings: for Freeze-thaw stability, Accuracy / Freeze-thaw stability, Mean concentration / Freeze-thaw stability, Difference: 3 cycles; for Freeze-thaw stability, Difference / Benchtop stability, Difference / Processed sample stability, Difference / Autosampler stability (5 °C), Difference / Long-term stability (−20 °C), Difference: vs freshly processed QC; for Benchtop stability, Accuracy / Benchtop stability, Mean concentration / Benchtop stability, Difference: 19 h; for Processed sample stability, Accuracy / Processed sample stability, Mean concentration / Processed sample stability, Difference: 23 h; for Autosampler stability (5 °C), Accuracy / Autosampler stability (5 °C), Mean concentration / Autosampler stability (5 °C), Difference: 112 h; for Long-term stability (−20 °C), Accuracy / Long-term stability (−20 °C), Mean concentration / Long-term stability (−20 °C), Difference: 27 days
# Protocol: (§5) The stability of the analytes was studied under various storage and processing conditions. […] Short- and long-term stability studies of all analytes were conducted in human blank plasma and brain homogenate under several storage conditions. Analyte stability in biological matrices was analyzed using freshly prepared calibration standards and QC samples. The percentage difference between the stability and freshly processed QC was also assessed. Re-injection reproducibility was evaluated within the sample stability period in the autosampler. Analytes were considered stable if the accuracy at each level was ±15.0% of the nominal value. Additionally, the difference from corresponding comparison QC samples must be within ±15.0%.
# [5] = Analyte stability in brain homogenate; format: physicochemical, human; settings: for Freeze-thaw stability, Accuracy / Freeze-thaw stability, Mean concentration / Freeze-thaw stability, Difference: 3 cycles; for Freeze-thaw stability, Difference / Benchtop stability, Difference / Processed sample stability, Difference / Autosampler stability (5 °C), Difference / Long-term stability (−20 °C), Difference: vs freshly processed QC; for Benchtop stability, Accuracy / Benchtop stability, Mean concentration / Benchtop stability, Difference: 6 h; for Processed sample stability, Accuracy / Processed sample stability, Mean concentration / Processed sample stability, Difference: 22 h; for Autosampler stability (5 °C), Accuracy / Autosampler stability (5 °C), Mean concentration / Autosampler stability (5 °C), Difference: 96 h; for Long-term stability (−20 °C), Accuracy / Long-term stability (−20 °C), Mean concentration / Long-term stability (−20 °C), Difference: 39 days
# Protocol: as §5
compound,measurement,setting,value
CCN1CCN(Cc2ccc(Nc3ncc(F)c(-c4cc(F)c5nc(CO)n(C(C)C)c5c4)n3)nc2)CC1 [M20],fraction unbound at 16 h,[1],0.021
same,fraction unbound at 16 h,"[2]; pH 7.4, gadolinium contrast enhancing GBM region, read-out: Fraction unbound (fu), GBM (E)",0.022
same,fraction unbound at 16 h,"[2]; pH 7.4, gadolinium contrast non-enhancing GBM region, read-out: Fraction unbound (fu), GBM (NE)",0.017
same,concentration at 6 day (intra-operative),[3]; read-out: Level in CSF (range),3.1 to 58.1 nM
same,concentration at 6 day (intra-operative),[3]; read-out: Median level in CSF,12.7 nM
same,"Freeze-thaw stability, Accuracy",[4]; HQC 400.0 nM,99.6%
same,"Freeze-thaw stability, Mean concentration",[4]; HQC 400.0 nM,398.6 nM
same,"Freeze-thaw stability, Difference",[4]; HQC 400.0 nM,0.3%
same,"Freeze-thaw stability, Accuracy",[4]; LQC 0.6 nM,97.2%
same,"Freeze-thaw stability, Mean concentration",[4]; LQC 0.6 nM,0.583 nM
same,"Freeze-thaw stability, Difference",[4]; LQC 0.6 nM,2.9%
same,"Benchtop stability, Accuracy",[4]; HQC 400.0 nM,102.2%
same,"Benchtop stability, Mean concentration",[4]; HQC 400.0 nM,408.9 nM
same,"Benchtop stability, Difference",[4]; HQC 400.0 nM,2.8%
same,"Benchtop stability, Accuracy",[4]; LQC 0.6 nM,99.9%
same,"Benchtop stability, Mean concentration",[4]; LQC 0.6 nM,0.599 nM
same,"Benchtop stability, Difference",[4]; LQC 0.6 nM,3.5%
same,"Processed sample stability, Accuracy",[4]; HQC 400.0 nM,101.4%
same,"Processed sample stability, Mean concentration",[4]; HQC 400.0 nM,405.7 nM
same,"Processed sample stability, Difference",[4]; HQC 400.0 nM,2.7%
same,"Processed sample stability, Accuracy",[4]; LQC 0.6 nM,88.9%
same,"Processed sample stability, Mean concentration",[4]; LQC 0.6 nM,0.534 nM
same,"Processed sample stability, Difference",[4]; LQC 0.6 nM,−2%
same,"Autosampler stability (5 °C), Accuracy",[4]; HQC 400.0 nM,95.6%
same,"Autosampler stability (5 °C), Mean concentration",[4]; HQC 400.0 nM,382.5 nM
same,"Autosampler stability (5 °C), Difference",[4]; HQC 400.0 nM,−2%
same,"Autosampler stability (5 °C), Accuracy",[4]; LQC 0.6 nM,95.1%
same,"Autosampler stability (5 °C), Mean concentration",[4]; LQC 0.6 nM,0.57 nM
same,"Autosampler stability (5 °C), Difference",[4]; LQC 0.6 nM,1.3%
same,"Long-term stability (−20 °C), Accuracy",[4]; HQC 400.0 nM,104.7%
same,"Long-term stability (−20 °C), Mean concentration",[4]; HQC 400.0 nM,418.8 nM
same,"Long-term stability (−20 °C), Difference",[4]; HQC 400.0 nM,2.7%
same,"Long-term stability (−20 °C), Accuracy",[4]; LQC 0.6 nM,101.7%
same,"Long-term stability (−20 °C), Mean concentration",[4]; LQC 0.6 nM,0.61 nM
same,"Long-term stability (−20 °C), Difference",[4]; LQC 0.6 nM,−4%
same,"Freeze-thaw stability, Accuracy",[5]; HQC 400.0 nM,108.7%
same,"Freeze-thaw stability, Mean concentration",[5]; HQC 400.0 nM,434.9 nM
same,"Freeze-thaw stability, Difference",[5]; HQC 400.0 nM,1.4%
same,"Freeze-thaw stability, Accuracy",[5]; LQC 0.6 nM,108.5%
same,"Freeze-thaw stability, Mean concentration",[5]; LQC 0.6 nM,0.651 nM
same,"Freeze-thaw stability, Difference",[5]; LQC 0.6 nM,−1.5%
same,"Benchtop stability, Accuracy",[5]; HQC 400.0 nM,93.7%
same,"Benchtop stability, Mean concentration",[5]; HQC 400.0 nM,375.0 nM
same,"Benchtop stability, Difference",[5]; HQC 400.0 nM,−4.4%
same,"Benchtop stability, Accuracy",[5]; LQC 0.6 nM,100.0%
same,"Benchtop stability, Mean concentration",[5]; LQC 0.6 nM,0.6 nM
same,"Benchtop stability, Difference",[5]; LQC 0.6 nM,2.3%
same,"Processed sample stability, Accuracy",[5]; HQC 400.0 nM,97.8%
same,"Processed sample stability, Mean concentration",[5]; HQC 400.0 nM,391.1 nM
same,"Processed sample stability, Difference",[5]; HQC 400.0 nM,−0.2%
same,"Processed sample stability, Accuracy",[5]; LQC 0.6 nM,100.5%
same,"Processed sample stability, Mean concentration",[5]; LQC 0.6 nM,0.603 nM
same,"Processed sample stability, Difference",[5]; LQC 0.6 nM,2.7%
same,"Autosampler stability (5 °C), Accuracy",[5]; HQC 400.0 nM,100.3%
same,"Autosampler stability (5 °C), Mean concentration",[5]; HQC 400.0 nM,401.3 nM
same,"Autosampler stability (5 °C), Difference",[5]; HQC 400.0 nM,2.7%
same,"Autosampler stability (5 °C), Accuracy",[5]; LQC 0.6 nM,101.9%
same,"Autosampler stability (5 °C), Mean concentration",[5]; LQC 0.6 nM,0.612 nM
same,"Autosampler stability (5 °C), Difference",[5]; LQC 0.6 nM,10.3%
same,"Long-term stability (−20 °C), Accuracy",[5]; HQC 400.0 nM,112.0%
same,"Long-term stability (−20 °C), Mean concentration",[5]; HQC 400.0 nM,448.1 nM
same,"Long-term stability (−20 °C), Difference",[5]; HQC 400.0 nM,4.5%
same,"Long-term stability (−20 °C), Accuracy",[5]; LQC 0.6 nM,105.9%
same,"Long-term stability (−20 °C), Mean concentration",[5]; LQC 0.6 nM,0.635 nM
same,"Long-term stability (−20 °C), Difference",[5]; LQC 0.6 nM,−3.9%
